According to patent publication US11247973B2 (The University of Durham, priority 2016, dated 2022):
Read-outs that look alike come from different tables or passages of the source.

Key:
[1] = system: RSV; assay: Cytopathic effect (CPE) assay; assay type: cell-based; settings: human respiratory syncytial virus; A549 cells and HeLa cells, 6-8 days, DMEM+2% FCS; read-out: CPE IC50
From the text: Cells were obtained from ATCC and the virus preparation was subjected to one round of centrifugation through a 40% (V/V) glycerol to remove any interferon produced from infected cells. Growth medium was Dulbecco's modified Eagle's medium (DMEM) with 10% (v/v) foetal calf serum (FCS), Viral maintainance medium was DMEM+2% (v/v) FCS.
Cytopathic Effect (CPE) Assay—IC50:
A549 cells and HeLa cells were used to seed a set of 96 well plates grown until 50% confluent, a 2 fold serial dilution of the compound was performed on each cell line with DMSO (only) as control starting with 100 μM of the compound. Medium used was DMEM+2% FCS (normal medium for viral growth).
Cells were allowed to grow for 6-8 days to mimic a TCID50 assay after which cell viability was determined by adding Almar blur (similar to XT) and reading at 600 nm (excitation 540 nm).

[2] = Mouse in vivo pharmacokinetic assay; set-up: species or system male CD-1 mice
Procedure: Pharmacokinetic evaluation of compound 2 was performed in male CD-1 mice following intravenous (IV) and oral (PO) administration. For intravenous administration the compound was formulated in solution in 40:60 DMA:saline and was administered at 1 mg/kg via the tail vein. For oral administration the compound was formulated in suspension in water containing 1% methylcellulose and 0.1% Tween80, and was administered at 10 mg/kg by oral gavage. Blood samples were taken by cardiac puncture under terminal anaesthesia (isoflurane) at ten timepoints between 1 minute and 24 hours following IV administration, and at nine timepoints between 5 minutes and 24 hours following PO administration (n=3 per timepoint). Plasma was immediately obtained by centrifugation, and the resulting samples frozen until analysis. Samples, along with a calibration curve prepared by spiking the compound into control plasma, were subsequently prepared for quantitative analysis by precipitation of plasma proteins with acetonitrile. Analysis was by ultra high performance liquid chromatography (Agilent 1290 system) coupled to time of flight mass spectrometry, using electrospray ionisation (Agilent 6550 system). Pharmacokinetic parameters were determined by non-compartmental analysis of mean concentration data using Phoenix WinNonlin v6.4.

O=C(CNc1c(F)c(F)nc(F)c1F)N[C@H]1N=C(c2ccccc2)c2ccccc2NC1=O [Compound 2]
IC50 [1]: 625 nM
Pharmacokinetic assessment in words ([2]; IV and PO): orally bioavailable with moderate clearance
F ([2]; PO 10 mg/kg vs IV 1 mg/kg): 54.8%
Vd ([2]; male, CD-1, plasma, IV 1 mg/kg): 3.65 L/kg
clearance ([2]; male, CD-1, plasma, IV 1 mg/kg): 63.1 mL/min/kg
half-life ([2]; male, CD-1, plasma, IV 1 mg/kg, read-out: IV t½): 0.983 h
Cmax ([2]; male, CD-1, plasma, PO 10 mg/kg): 349 ng/mL
half-life ([2]; male, CD-1, plasma, PO 10 mg/kg, read-out: PO t½): 2.2 h
